# Key:
# [1] = tested on: Ostrinia nubilalis (European corn borer); assay: Efficacy of chlorpyrifos-ethyl with boronic acids on European corn borer on corn leaves; assay type: in vivo
# Procedure: Treatments were performed by spraying a volume of mixture corresponding to 200 l/ha. 4 boxes/condition.
# Drying 1 h at 20° C.; Deposit of three leaf fragments per box on water agar (4 box/condition); Infection of each leaf fragment with 4 Ostrinia nubilalis (12 larvae/box); Incubation 18° C./28° C. […] The percentage of mortality was calculated for each assessment times. Statistical analysis of the data was performed with XLSTAT® software (ANOVAs followed by Newman-Keuls tests with a threshold of 5%, see Table below).
# Trypsin = target: T1, Trypsin (Bos taurus, UniProt P00760); assay: Trypsin selectivity; assay type: biochemical
# T1 construct: gene PRSS1
# T1 sequence (P00760 24-246): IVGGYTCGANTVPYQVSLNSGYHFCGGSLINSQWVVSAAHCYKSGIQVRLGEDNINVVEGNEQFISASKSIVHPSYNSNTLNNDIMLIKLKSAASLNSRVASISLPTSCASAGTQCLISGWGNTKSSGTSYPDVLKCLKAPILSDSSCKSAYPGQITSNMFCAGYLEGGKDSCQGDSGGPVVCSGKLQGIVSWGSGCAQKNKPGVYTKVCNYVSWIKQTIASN
# Procedure: (§1) To characterize the selectivity of boronic acids 1 to 5, they were assayed against AChE, the target of OP and carbamate insecticides (Table 1) as well as trypsin and bacterial AmpC β-lactamase. […] The toxicity of the hits against two human cell lines was further assessed.
# (§2) To characterize the selectivity of boronic acids 1 to 5, they were assayed against the target of OP insecticides, AChE, as well as trypsin and bacterial AmpC β-lactamase (Table 1). AChE and αE7 are homologous, sharing the α/β-hydrolase fold and the same catalytic machinery, however the topology of their binding pockets is dissimilar (Jackson, C. J. et al. Structure and function of an insect α-carboxylesterase (αEsterase7) associated with insecticide resistance. Proc. Natl. Acad. Sci. U.S.A. 110, 10177-82 (2013) and Correy, G. J. et al. Mapping the Accessible Conformational Landscape of an Insect Carboxylesterase Using Conformational Ensemble Analysis and Kinetic Crystallography. Structure 24, 1-11 (2016).). Both trypsin and AmpC β-lactamase contain an activated serine nucleophile and oxyanion hole, however trypsin contains a serine-histidine-aspartic acid (Hedstrom, L. Serine protease mechanism and specificity. Chem. Rev. 102, 4501-4523 (2002).) while AmpC β-lactamase contains a serine-tyrosine-lysine catalytic triad (Dubus, A., et al. The roles of residues Tyr150, Glu272, and His314 in class C β-lactamases. Proteins Struct. Funct. Genet. 25, 473-485 (1996).).
# [2] = target: bacterial AmpC β-lactamase (Escherichia coli, UniProt P00811); assay: AmpC β-lactamase selectivity; assay type: biochemical
# Chain of bacterial AmpC β-lactamase (P00811 20-377): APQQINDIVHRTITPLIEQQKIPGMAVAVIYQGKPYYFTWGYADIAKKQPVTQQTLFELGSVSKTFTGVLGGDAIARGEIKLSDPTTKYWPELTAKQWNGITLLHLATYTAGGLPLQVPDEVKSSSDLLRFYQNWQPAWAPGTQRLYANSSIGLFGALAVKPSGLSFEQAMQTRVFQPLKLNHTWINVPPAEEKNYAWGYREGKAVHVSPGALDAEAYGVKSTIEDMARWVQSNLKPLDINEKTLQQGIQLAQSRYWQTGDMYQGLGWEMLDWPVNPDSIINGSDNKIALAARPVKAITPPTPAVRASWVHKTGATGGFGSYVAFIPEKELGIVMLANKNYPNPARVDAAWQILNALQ
# Procedure: as §1, §2
# DPP4 = target: T2, DPP4 (Homo sapiens, UniProt P27487); assay: Protease selectivity panel; assay type: biochemical; settings: 100 μM compound, n = 2
# T2 construct: purchased ENZO
# T2 sequence (P27487 whole entry): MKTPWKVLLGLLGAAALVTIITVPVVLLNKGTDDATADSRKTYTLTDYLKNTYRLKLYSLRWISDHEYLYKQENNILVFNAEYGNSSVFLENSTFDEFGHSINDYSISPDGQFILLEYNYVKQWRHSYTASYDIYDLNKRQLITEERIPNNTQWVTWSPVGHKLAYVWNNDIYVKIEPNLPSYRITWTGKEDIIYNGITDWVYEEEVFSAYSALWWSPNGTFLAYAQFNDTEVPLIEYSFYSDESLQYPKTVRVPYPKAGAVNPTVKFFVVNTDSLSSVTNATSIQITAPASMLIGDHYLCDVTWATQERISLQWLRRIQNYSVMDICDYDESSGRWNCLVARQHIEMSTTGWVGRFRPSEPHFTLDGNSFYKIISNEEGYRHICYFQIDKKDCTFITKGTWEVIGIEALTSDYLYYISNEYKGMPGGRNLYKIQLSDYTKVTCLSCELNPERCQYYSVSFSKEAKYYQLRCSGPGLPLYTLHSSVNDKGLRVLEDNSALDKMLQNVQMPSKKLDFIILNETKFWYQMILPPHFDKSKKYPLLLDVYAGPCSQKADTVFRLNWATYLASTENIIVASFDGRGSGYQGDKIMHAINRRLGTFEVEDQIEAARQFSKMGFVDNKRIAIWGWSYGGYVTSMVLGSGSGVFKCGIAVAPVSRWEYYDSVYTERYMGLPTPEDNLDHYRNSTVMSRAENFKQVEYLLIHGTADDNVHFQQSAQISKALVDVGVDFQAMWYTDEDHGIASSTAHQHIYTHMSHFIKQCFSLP
# Procedure: (§3) Test compounds were dissolved in 100% DMSO to make 10 mM stock. Final compound concentration in assay is […]. Compounds were tested in duplicate wells at single concentration and the final concentration of DMSO in all assays was kept at 1%. Five reference compounds, AEBSF, Carfilzomib, Granzyme B Inhibitor II, Dec-RVKR-CMK, and Teneligliptin hydrobromide, were tested in an identical manner with 8 concentration points at 5× dilutions.
# GranzymeK = target: T3, GranzymeK (Homo sapiens, UniProt P49863); assay: Protease selectivity panel; assay type: biochemical; settings: 100 μM compound, n = 2
# T3 construct: purchased ENZO
# T3 sequence (P49863 27-264): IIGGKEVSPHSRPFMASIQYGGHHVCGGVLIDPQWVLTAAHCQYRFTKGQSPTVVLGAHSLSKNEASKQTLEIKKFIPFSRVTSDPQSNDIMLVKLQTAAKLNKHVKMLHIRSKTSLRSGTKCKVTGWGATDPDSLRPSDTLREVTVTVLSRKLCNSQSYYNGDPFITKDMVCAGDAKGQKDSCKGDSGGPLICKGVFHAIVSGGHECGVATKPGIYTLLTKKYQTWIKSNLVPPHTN
# Procedure: as §3
# [3] = tested on: Lucilia cuprina larvae, field strain Tara resistant to diazinon; assay: Lucilia cuprina larval bioassay (pupation rate), field strain; assay type: in vivo
# Source text: Diazinon resistance is typically associated with the Gly137Asp mutation/resistance allele. […] This is consistent with previous results showing that duplications of the chromosomal region containing αE7 have occurred, meaning that resistant strains now carry copies of both WT and Glyl37Asp LcαE7.
# Two strains of L. cuprina were used: 1) a laboratory reference drug-susceptible strain, LS, derived from collections in the Australian Capital Territory over 40 years ago, with no history of exposure to insecticides; and 2) a field-collected strain, Tara, resistant to diazinon and diflubenzuron (Levot, G. W. & Sales, N. New high level resistance to diflubenzuron detected in the Australian sheep blowfly, Lucilia cuprina (Wiedemann) (Diptera: Calliphoridae). Gen. Appl. Entomol. 31, 43-46 (2002)). The LcαE7 gene was sequenced in each of the strains. Briefly, genomic DNA was prepared from 20 adult female flies from each strain using the DNeasy Blood and Tissue kit (Qiagen). PCR was performed with primers specific to the LcαE7 gene, and the product was cloned into a pGEM-T EASY vector (Promega). Eight clones of the susceptible strain and 10 clones of the resistant strain were sequenced using M13 forward and reverse primers.
# The effect of compounds 2, 3, 5, 3.9 and 3.10 on the development of blowfly larvae in the presence of diazinon/malathion was assessed using a bioassay system in which larvae were allowed to develop from the first instar stage until pupation on cotton wool impregnated with diazinon/malathion over a range of concentrations, in the presence or absence of the compounds at constant concentrations (Kotze, A. C. et al. Histone deacetylase enzymes as drug targets for the control of the sheep blowfly, Lucilia cuprina. Int. J. Parasitol. Drugs Drug Resist. 5, 201-208 (2015)). Each experiment utilized 50 larvae at each diazinon/malathion concentration. Experiments were replicated three times for diazinon, and twice for malathion. The insecticidal effects were defined by measuring the pupation rate. […] Compounds were also without diazinon or malathion at 1 mg per assay.
# [4] = tested on: panel of 26 human serine or threonine proteases; assay: Protease selectivity panel as a whole (26 Ser/Thr proteases); assay type: biochemical; settings: 100 μM; the 3 proteases inhibited by more than 50%
# Procedure: as §3
compound,measurement,setting,value
"CCOP(=S)(OCC)Oc1nc(Cl)c(Cl)cc1Cl [CPE, Chlorpyrifos-ethyl]",Percentage of efficacy,"[1]; CPE 2.5, 1 DAT, boronic acid where present 0.2 mg/ml",0%
same,Percentage of efficacy,"[1]; CPE 2.5, 3 DAT, boronic acid where present 0.2 mg/ml",0%
same,Percentage of efficacy,"[1]; CPE 2.5, 6 DAT, boronic acid where present 0.2 mg/ml",26%
same,"Larvae number, mean","[1]; CPE 2.5 g a.i./ha, 1 DAT, boronic acid where present 0.2 mg/ml",12
same,"Larvae number, mean","[1]; CPE 2.5 g a.i./ha, 3 DAT, boronic acid where present 0.2 mg/ml",12
same,"Larvae number, mean","[1]; CPE 2.5 g a.i./ha, 6 DAT, boronic acid where present 0.2 mg/ml",8
same,Percentage of efficacy,"[1]; CPE 6.24, 1 DAT, boronic acid where present 0.2 mg/ml",11%
same,Percentage of efficacy,"[1]; CPE 6.24, 3 DAT, boronic acid where present 0.2 mg/ml",16%
same,Percentage of efficacy,"[1]; CPE 6.24, 6 DAT, boronic acid where present 0.2 mg/ml",63%
same,"Larvae number, mean","[1]; CPE 6.24 g a.i./ha, 1 DAT, boronic acid where present 0.2 mg/ml",10.7
same,"Larvae number, mean","[1]; CPE 6.24 g a.i./ha, 3 DAT, boronic acid where present 0.2 mg/ml",9.7
same,"Larvae number, mean","[1]; CPE 6.24 g a.i./ha, 6 DAT, boronic acid where present 0.2 mg/ml",4
same,Percentage of efficacy,"[1]; CPE 15.6, 1 DAT, boronic acid where present 0.2 mg/ml",40%
same,Percentage of efficacy,"[1]; CPE 15.6, 3 DAT, boronic acid where present 0.2 mg/ml",39%
same,Percentage of efficacy,"[1]; CPE 15.6, 6 DAT, boronic acid where present 0.2 mg/ml",67%
same,"Larvae number, mean","[1]; CPE 15.6 g a.i./ha, 1 DAT, boronic acid where present 0.2 mg/ml",7.3
same,"Larvae number, mean","[1]; CPE 15.6 g a.i./ha, 3 DAT, boronic acid where present 0.2 mg/ml",7
same,"Larvae number, mean","[1]; CPE 15.6 g a.i./ha, 6 DAT, boronic acid where present 0.2 mg/ml",3.5
same,Percentage of efficacy,"[1]; CPE 39, 1 DAT, boronic acid where present 0.2 mg/ml",72%
same,Percentage of efficacy,"[1]; CPE 39, 3 DAT, boronic acid where present 0.2 mg/ml",83%
same,Percentage of efficacy,"[1]; CPE 39, 6 DAT, boronic acid where present 0.2 mg/ml",88%
same,"Larvae number, mean","[1]; CPE 39 g a.i./ha, 1 DAT, boronic acid where present 0.2 mg/ml",3.3
same,"Larvae number, mean","[1]; CPE 39 g a.i./ha, 3 DAT, boronic acid where present 0.2 mg/ml",2
same,"Larvae number, mean","[1]; CPE 39 g a.i./ha, 6 DAT, boronic acid where present 0.2 mg/ml",1.3
Cc1ccc(B(O)O)cc1Br [Compound 1],Ki,Trypsin,> 100 µM
same,Ki,[2],216 nM
Cc1ccc(B(O)O)cc1OCc1ccccc1 [Compound 2],Ki,Trypsin,> 100 µM
same,Ki,[2],380 nM
OB(O)c1cc(Br)cc(N2CCOCC2)c1 [Compound 3.1],"Larvae number, mean","[1]; boronic acid alone 0.2 mg/ml, 1 DAT, 12 larvae/box",12
same,"Larvae number, mean","[1]; boronic acid alone 0.2 mg/ml, 3 DAT, 12 larvae/box",12
same,"Larvae number, mean","[1]; boronic acid alone 0.2 mg/ml, 6 DAT, 12 larvae/box",8.3
OB(O)c1cc(Br)cc(OCc2ccccc2)c1 [Compound 3.9],inhibition at 100 µM,DPP4,2%
same,inhibition at 100 µM,GranzymeK,14%
"OB(O)c1cc(Br)cc(Oc2ccccc2)c1 [Compound 3.10, 3-Bromo-5-phenoxyfenylboronic acid]",inhibition at 100 µM,DPP4,-3%
same,inhibition at 100 µM,GranzymeK,3%
same,reduction of diazinon EC50 compared to a diazinon only control,[3]; field strain,12 fold
same,sensitivity of field strain to diazinon compared to the laboratory strain treated with only diazinon,[3]; fold more sensitive,4 fold
OB(O)c1cc(Br)cc(N2CCCC2)c1 [Compound 3],Ki,Trypsin,> 100 µM
same,Ki,[2],60 nM
same,inhibition at 100 µM,DPP4,6%
same,inhibition at 100 µM,GranzymeK,5%
same,residual activity of the inhibited proteases,[4],at least 30%
OB(O)c1ccc2ccccc2c1 [Compound 4],Ki,Trypsin,> 10 µM
same,Ki,[2],104 nM
"OB(O)c1ccc(OCc2ccccc2F)c(Cl)c1 [Compound 5, 3-Chloro-4(2′-fluorobenzyloxy) phenylboronic acid]",Ki,Trypsin,> 100 µM
same,Ki,[2],220 nM
